Data: PubChem BioAssay AID248 (DTP/NCI, 2004)
Several values for one entry are separate records, joined by “and”; a condition that tells them apart may be missing. Identical values can stand only once. Toxic doses and inconclusive results are not listed.

System: L1210 leukemia ip in BDF1 mice, survival T/C
Test: NCI In Vivo Anticancer Drug Screen. Data for tumor model L1210 Leukemia (intraperitoneal) in B6D2F1 (BDF1) mice
Conditions: endpoint: mean survival time, higher = longer survival
In short: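 Value reflects the ratio of survival in compound-treated mice to survival in vehicle-treated controls, with both groups carrying the same transplanted tumor.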

O=C(O)c1[nH]c(=O)[nH]c(=O)c1F
T/C (dose: 0.09 mg/kg/injection, schedule: Q01DX005 (oral), vehicle: saline): 112 % of control
T/C (dose: 0.18 mg/kg/injection, schedule: Q01DX005 (oral), vehicle: saline): 108 % of control
T/C (dose: 0.18 mg/kg/injection, schedule: Q01DX015 (ip), vehicle: saline): 115 % of control
T/C (dose: 0.37 mg/kg/injection, schedule: Q01DX005 (oral), vehicle: saline): 115 % of control
T/C (dose: 0.37 mg/kg/injection, schedule: Q01DX015 (ip), vehicle: saline): 157 % of control
T/C (dose: 0.63 mg/kg/injection, schedule: Q01DX015 (ip), vehicle: carboxymethylcellulose (CMC)): 105 % of control
T/C (dose: 0.75 mg/kg/injection, schedule: Q01DX005 (oral), vehicle: saline): 120 % of control
T/C (dose: 0.75 mg/kg/injection, schedule: Q01DX015 (ip), vehicle: saline): 188 % of control
T/C (dose: 0.75 mg/kg/injection, schedule: Q01DX015 (oral), vehicle: saline): 115 % of control
T/C (dose: 0.75 mg/kg/injection, schedule: Q## X003 (oral), vehicle: saline): 101 % of control
T/C (dose: 0.75 mg/kg/injection, schedule: Q## X024 (oral), vehicle: saline): 112 % of control
T/C (dose: 1.0 mg/kg/injection, schedule: Q01DX009 (ip), vehicle: saline with Tween-80): 114 % of control
T/C (dose: 1.0 mg/kg/injection, schedule: Q01DX009 (ip), vehicle: saline): 113 % of control
T/C (dose: 1.25 mg/kg/injection, schedule: Q01DX009 (ip), vehicle: saline): 97 % of control and 111 % of control
T/C (dose: 1.25 mg/kg/injection, schedule: Q01DX015 (ip), vehicle: carboxymethylcellulose (CMC)): 111 % of control
T/C (dose: 1.3 mg/kg/injection, schedule: Q## X008 (oral), vehicle: saline): 111 % of control
T/C (dose: 1.5 mg/kg/injection, schedule: Q01DX006 (iv), vehicle: saline): 112 % of control
T/C (dose: 1.5 mg/kg/injection, schedule: Q01DX009 (oral), vehicle: saline): 114 % of control
T/C (dose: 1.5 mg/kg/injection, schedule: Q01DX015 (im), vehicle: saline): 117 % of control
T/C (dose: 1.5 mg/kg/injection, schedule: Q01DX015 (sc), vehicle: saline): 120 % of control
T/C (dose: 1.5 mg/kg/injection, schedule: Q## X003 (oral), vehicle: saline): 104 % of control
T/C (dose: 1.5 mg/kg/injection, schedule: Q## X024 (oral), vehicle: saline): 113 % of control
T/C (dose: 2.5 mg/kg/injection, schedule: Q01DX009 (ip), vehicle: saline): 117 % of control
T/C (dose: 2.5 mg/kg/injection, schedule: Q01DX015 (ip), vehicle: carboxymethylcellulose (CMC)): 122 % of control
T/C (dose: 2.6 mg/kg/injection, schedule: Q## X008 (oral), vehicle: saline): 114 % of control
T/C (dose: 3.0 mg/kg/injection, schedule: Q01DX005 (oral), vehicle: saline): 157 % of control
T/C (dose: 3.0 mg/kg/injection, schedule: Q01DX006 (iv), vehicle: saline): 120 % of control
T/C (dose: 3.0 mg/kg/injection, schedule: Q01DX009 (ip), vehicle: saline): 165 % of control
T/C (dose: 3.0 mg/kg/injection, schedule: Q01DX015 (ip), vehicle: saline): 191 % of control
T/C (dose: 3.0 mg/kg/injection, schedule: Q01DX015 (oral), vehicle: saline): 157 % of control
T/C (dose: 3.0 mg/kg/injection, schedule: Q## X003 (oral), vehicle: saline): 103 % of control
T/C (dose: 4.0 mg/kg/injection, schedule: Q01DX009 (ip), vehicle: saline with Tween-80): 161 % of control
T/C (dose: 4.0 mg/kg/injection, schedule: Q01DX009 (ip), vehicle: saline): 165 % of control
T/C (dose: 5.0 mg/kg/injection, schedule: Q01DX009 (ip), vehicle: saline): 155 % of control
T/C (dose: 5.0 mg/kg/injection, schedule: Q01DX015 (ip), vehicle: carboxymethylcellulose (CMC)): 155 % of control
T/C (dose: 5.0 mg/kg/injection, schedule: Q01DX Z (ip), vehicle: methylcellulose (MC)): 119 % of control
T/C (dose: 5.2 mg/kg/injection, schedule: Q## X008 (oral), vehicle: saline): 119 % of control
T/C (dose: 6.0 mg/kg/injection, schedule: Q01DX005 (oral), vehicle: saline): 174 % of control
T/C (dose: 6.0 mg/kg/injection, schedule: Q01DX006 (iv), vehicle: saline): 121 % of control
T/C (dose: 6.0 mg/kg/injection, schedule: Q01DX009 (ip), vehicle: saline): 211 % of control
T/C (dose: 6.0 mg/kg/injection, schedule: Q01DX015 (im), vehicle: saline): 179 % of control
T/C (dose: 6.0 mg/kg/injection, schedule: Q01DX015 (ip), vehicle: saline): 164 % of control
T/C (dose: 6.0 mg/kg/injection, schedule: Q01DX015 (oral), vehicle: saline): 191 % of control
T/C (dose: 6.0 mg/kg/injection, schedule: Q01DX015 (sc), vehicle: saline): 182 % of control
T/C (dose: 6.0 mg/kg/injection, schedule: Q## X003 (oral), vehicle: saline): 113 % of control
T/C (dose: 6.0 mg/kg/injection, schedule: Q## X024 (oral), vehicle: saline): 157 % of control
T/C (dose: 7.0 mg/kg/injection, schedule: Q01DX015 (ip), vehicle: carboxymethylcellulose (CMC)): 189 % of control
T/C (dose: 8.0 mg/kg/injection, schedule: Q01DX009 (ip), vehicle: saline): 188 % of control
T/C (dose: 10.0 mg/kg/injection, schedule: Q01DX009 (ip), vehicle: saline): 188 % of control and 206 % of control
T/C (dose: 10.5 mg/kg/injection, schedule: Q01DX001 (oral), vehicle: saline): 111 % of control
T/C (dose: 11.0 mg/kg/injection, schedule: Q01DX015 (ip), vehicle: carboxymethylcellulose (CMC)): 214 % of control
T/C (dose: 11.0 mg/kg/injection, schedule: Q01DX Z (ip), vehicle: methylcellulose (MC)): 109 % of control
T/C (dose: 12.0 mg/kg/injection, schedule: Q01DX006 (iv), vehicle: saline): 153 % of control
T/C (dose: 12.0 mg/kg/injection, schedule: Q01DX009 (ip), vehicle: saline): 100 % of control and 101 % of control
T/C (dose: 12.0 mg/kg/injection, schedule: Q01DX015 (im), vehicle: saline): 162 % of control
T/C (dose: 12.0 mg/kg/injection, schedule: Q01DX015 (ip), vehicle: saline): 155 % of control
T/C (dose: 12.0 mg/kg/injection, schedule: Q01DX015 (sc), vehicle: saline): 171 % of control
T/C (dose: 12.0 mg/kg/injection, schedule: Q## X024 (oral), vehicle: saline): 154 % of control
T/C (dose: 12.0 mg/kg/injection, schedule: Q## X040 (oral), vehicle: saline): 87 % of control
T/C (dose: 16.0 mg/kg/injection, schedule: Q01DX009 (ip), vehicle: saline): 107 % of control
T/C (dose: 16.0 mg/kg/injection, schedule: Q01DX015 (ip), vehicle: carboxymethylcellulose (CMC)): 183 % of control
T/C (dose: 21.0 mg/kg/injection, schedule: Q01DX001 (oral), vehicle: saline): 106 % of control
T/C (dose: 24.0 mg/kg/injection, schedule: Q01DX009 (ip), vehicle: saline): 110 % of control
T/C (dose: 24.0 mg/kg/injection, schedule: Q01DX009 (oral), vehicle: saline): 112 % of control
T/C (dose: 24.0 mg/kg/injection, schedule: Q01DX015 (im), vehicle: saline): 120 % of control
T/C (dose: 24.0 mg/kg/injection, schedule: Q01DX015 (ip), vehicle: saline): 114 % of control
T/C (dose: 24.0 mg/kg/injection, schedule: Q01DX015 (oral), vehicle: saline): 104 % of control
T/C (dose: 24.0 mg/kg/injection, schedule: Q## X024 (oral), vehicle: saline): 156 % of control
T/C (dose: 32.0 mg/kg/injection, schedule: Q04DX003 (ip), vehicle: saline): 178 % of control
T/C (dose: 48.0 mg/kg/injection, schedule: Q01DX006 (iv), vehicle: saline): 183 % of control
T/C (dose: 48.0 mg/kg/injection, schedule: Q01DX009 (ip), vehicle: saline): 88 % of control
T/C (dose: 48.0 mg/kg/injection, schedule: Q01DX009 (oral), vehicle: saline): 101 % of control
T/C (dose: 48.0 mg/kg/injection, schedule: Q01DX015 (im), vehicle: saline): 95 % of control and 112 % of control
T/C (dose: 48.0 mg/kg/injection, schedule: Q01DX015 (ip), vehicle: carboxymethylcellulose (CMC)): 120 % of control
T/C (dose: 48.0 mg/kg/injection, schedule: Q01DX015 (ip), vehicle: saline): 101 % of control and 114 % of control
T/C (dose: 48.0 mg/kg/injection, schedule: Q01DX015 (oral), vehicle: saline): 97 % of control
T/C (dose: 48.0 mg/kg/injection, schedule: Q01DX015 (sc), vehicle: saline): 106 % of control and 108 % of control
T/C (dose: 48.0 mg/kg/injection, schedule: Q## X003 (oral), vehicle: saline): 158 % of control
T/C (dose: 48.0 mg/kg/injection, schedule: Q## X024 (oral), vehicle: saline): 109 % of control
T/C (dose: 64.0 mg/kg/injection, schedule: Q04DX003 (ip), vehicle: saline): 193 % of control
T/C (dose: 84.0 mg/kg/injection, schedule: Q01DX001 (oral), vehicle: saline): 121 % of control
T/C (dose: 96.0 mg/kg/injection, schedule: Q01DX006 (iv), vehicle: saline): 106 % of control
T/C (dose: 96.0 mg/kg/injection, schedule: Q01DX015 (im), vehicle: saline): 86 % of control
T/C (dose: 96.0 mg/kg/injection, schedule: Q01DX015 (oral), vehicle: saline): 87 % of control
T/C (dose: 96.0 mg/kg/injection, schedule: Q## X024 (oral), vehicle: saline): 98 % of control
T/C (dose: 192.0 mg/kg/injection, schedule: Q01DX006 (iv), vehicle: saline): 104 % of control
T/C (dose: 192.0 mg/kg/injection, schedule: Q01DX015 (oral), vehicle: saline): 87 % of control
T/C (dose: 356.0 mg/kg/injection, schedule: Q## X008 (oral), vehicle: saline): 111 % of control
T/C (dose: 384.0 mg/kg/injection, schedule: Q01DX006 (iv), vehicle: saline): 86 % of control
T/C (dose: 384.0 mg/kg/injection, schedule: Q## X003 (oral), vehicle: saline): 122 % of control
T/C (dose: 712.0 mg/kg/injection, schedule: Q01DX001 (oral), vehicle: saline): 150 % of control
T/C (dose: 768.0 mg/kg/injection, schedule: Q## X003 (oral), vehicle: saline): 108 % of control
T/C (dose: 1000.0 mg/kg/injection, schedule: Q01DX001 (oral), vehicle: saline): 160 % of control
T/C (dose: 1000.0 mg/kg/injection, schedule: Q## X003 (oral), vehicle: saline): 103 % of control
